From patent US12460317B2 (The Texas A&M University System, priority 2019, dated 2025)
Starred links: 1 amine or outer side, 2 acyl side, 3 side chain; linkers in the order of their positions; H or OH if unused. Positions of bridges follow the written chain, without caps; N, C: chain ends. Residues, ends and D or L forms follow the SMILES beside them. *: point of attachment. 5FAM = O=C1OC2(c3ccc(O)cc3Oc3cc(O)ccc32)c2ccc(C(=O)*)cc21; CH2CH2CO = O=C(CC[*:1])[*:2]

Tests used:
[1] = physiological conditions; cited from earlier work
HDAC8 = HDAC8 (Homo sapiens, UniProt Q9BY41); assay: biochemical
HDAC8, sequence (Q9BY41 whole entry): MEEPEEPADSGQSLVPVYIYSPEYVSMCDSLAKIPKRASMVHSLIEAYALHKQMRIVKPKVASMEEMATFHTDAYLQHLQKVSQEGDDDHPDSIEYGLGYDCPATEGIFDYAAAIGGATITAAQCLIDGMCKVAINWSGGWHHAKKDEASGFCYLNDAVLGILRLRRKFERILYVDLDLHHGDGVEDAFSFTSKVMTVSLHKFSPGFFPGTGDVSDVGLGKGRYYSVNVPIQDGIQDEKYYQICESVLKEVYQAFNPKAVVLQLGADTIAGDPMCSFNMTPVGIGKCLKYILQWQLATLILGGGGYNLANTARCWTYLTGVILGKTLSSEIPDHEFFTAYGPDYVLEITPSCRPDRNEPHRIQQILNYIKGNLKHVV
Protocol: Applicants incubated a 25 nM 5-FAM-conjugated cyclic peptide and different concentrations of a target protein (160 nM to 160 μM) in black 96-well plates in a 200 μL total volume that was adjusted by adding a PBS buffer. The fluorescence polarization was measured in a microplate reader at Ex/Em=490 nm/520 nm.

C=CC(=O)NCCCC[C@H](N)C(=O)O [AcrK, N^ε-acryloyl-lysine]
second-order rate constant of reaction with a thiol [1]: 0.004 M⁻¹ s⁻¹

CSCC[C@@H]1NC(=O)[C@H](Cc2c[nH]c3ccccc23)NC(=O)[C@H](CC(C)C)NC(=O)[C@H](CO)NC(=O)[C@H](CCC(N)=O)NC(=O)[C@@H](N)CSCCC(=O)NCCCC[C@@H](C(=O)N[C@@H](CCCCNC(=O)c2ccc3c(c2)C(=O)OC32c3ccc(O)cc3Oc3cc(O)ccc32)C(N)=O)NC(=O)[C@H](CC(N)=O)NC1=O [CycH8a, CQSLWMNX] (H-CQSLWMNKK(5FAM)-NH2; linker 1-8 via CH2CH2CO)
Kd (HDAC8): 7.1 µM
